Measurements published in patent US8071760B2, “Boron-containing porphyrin compounds and their uses” (Board of Supervisors of Louisiana State University and …, priority 2005, dated 2011).
“Also recorded” adds a separate entry of the source. Marks after values point to notes of the source that are not given here.

Experiments:
[1] = solubility in solvents and water; assay type: physicochemical
Source text: Compound 18 was converted to the water-soluble TBP Compound 19 with tert-butylammonium fluoride in THF, followed by cation exchange.

[2] = tested on: human glioblastoma T98G cells; experiment: Time-dependent cellular uptake; assay type: cell-based; details: 10 μM, FIG. 12
Experimental: (§1) Human glioblastoma T98G cells and cervical carcinoma HEp2 cells were obtained from ATCC. Both cell lines were maintained in 50% α-MEM/advanced MEM, supplemented with 5% fetal bovine serum. Phosphate buffered saline (PBS), fetal bovine serum, and trypsin were purchased from Gibco; Cyquant reagent and Lysosensor were purchased from Molecular Probes, and Triton X-100 was purchased from Calbiochem. Microscopy was performed on a Zeiss Axiovert 200M inverted fluorescence microscope fitted with standard Texas Red and FITC filter sets (Chroma Technology Corp.). Images were acquired with a Zeiss Axiocam MRM CCD camera fitted to the microscope, and were pseudo-colored with Adobe Photoshop® CS version 8.0. Compounds 19 and 20 were dissolved in DMSO (Sigma-Aldrich) prior to being diluted into cell medium so that the final DMSO concentration never exceeded 1%. All medium solutions were filter-sterilized ([…] pore size) prior to use. All data obtained in the FLUOstar plate reader was analyzed using Prism 3.0 graphing software.
Human T98G cells were sub-cultured and incubated for 48 h as otherwise described above. A filter-sterilized, 10 μM stock solution of TBP 19 in 1% DMSO/medium was added, and the cells were incubated for 24, 16, 8, 4, 2, 1, 0.5 and 0 h. […] Known and unknown concentrations of TBP 19 were determined as described above for the concentration-dependent uptake. […]

Human HEp2 cells = experiment: Intracellular localization (fluorescence microscopy, Lysosensor co-localization); assay type: cell-based; details: 50 μM, 24 h incubation, fluorescence pattern and overlay with Lysosensor; listed as TBP 19
Experimental: as §1
Human HEp2 cells were sub-cultured on Lab-Tek II chamber cover slips with α-MEM/advanced medium for 48 h. TBP 5 was added to each chamber to reach a final concentration of 50 μM. […] New medium containing 50 mM HEPES pH 7.4 was added, and the cells were examined immediately by fluorescence microscopy. […]

[3] = tested on: human glioblastoma T98G cells; experiment: Concentration-dependent cellular uptake; assay type: cell-based; details: for dependence of uptake on concentration: up to 200 μM
Experimental: as §1, with “Compounds 19 and 20 were dissolved in DMSO (Sigma-Aldrich) prior to being diluted into cell medium so that the final DMSO concentration never exceeded 1%.” left out
Human T98G cells were sub-cultured on 96-well plates at 10,000 cells/100 μL α-MEM/advanced medium per well, and were incubated for 48 h. […] A standard curve for different cell numbers was obtained by placing 100,000, 80,000, 60,000, 40,000, 20,000, 10,000, and 0 cells in the wells, followed by incubation for 3 h. A standard graph was prepared from the wells with known cell numbers. Unknown cell numbers from the experiments were determined by first adding 100 μL/well of 5 μM stock solution of Cyquant reagent in PBS, and then reading the plate on a FLUOstar plate reader using 480 nm excitation and 520 emission filters. The same procedure was followed for determining the concentration-dependent cellular uptake of porphyrin 20, but using 570 nm excitation and 650 nm emission filters.

BALB/c mice = experiment: Animal toxicity (clinical signs, serum chemistry, histopathology); assay type: in vivo; details: for AP / Albumin / BUN / Bilirubin / Globulin / Glucose / Total Prot. / ALT / AST: serum, blood 48 h after administration, group mean; for ALT / AST: in U/L (unit assumed)
Experimental: Twelve groups of two BALB/c mice each, 4-6 weeks of age and weighing 12-24 g (mean=19 g), were used for toxicity studies. There were 8 female and 16 male mice. Mice in groups 1, 3, 5, 7, and 9 were administered TBP 19 once via i.p. injection, at increasing dosages: group 1 (20 mg/kg of a 2 mg/ml solution), group 3 (40 mg/kg of a 2 mg/ml solution), group 5 (80 mg/kg of a 4 mg/ml solution), group 7 (120 mg/kg of a 4 mg/ml solution), and group 9 (160 mg/kg of a 4 mg/ml solution). Mice in groups 2, 4, 6, 8, and 10 were administered porphyrin 20 once via i.p. injection at increasing dosages: group 2 (20 mg/kg of a 2 mg/ml solution), group 4 (40 mg/kg of a 2 mg/ml solution), group 6 (80 mg/kg of a 4 mg/ml solution), group 8 (120 mg/kg of a 4 mg/ml solution), and group 10 (160 mg/kg of a 4 mg/ml solution). Two groups of mice served as vehicle controls. Mice in group 11 received sterile 4% Cremophor EL (Fluka) in PBS and served as controls for mice receiving 20, 40, and 80 mg/kg compound; while mice in group 12 received 6% Cremophor EL and served as controls for mice receiving 120 and 160 mg/kg compound.
For each compound, groups were dosed sequentially and each group was evaluated daily for signs of toxicity, including hunched posture, rough hair coat, and decreased responsiveness. Mice were anesthetized with CO2 48 h after compound administration, and blood was collected by cardiocentesis for clinical chemistry evaluation. Serum chemistry was analyzed, including glucose, aspartate aminotransferase (AST), alanine aminotransferase (ALT), alkaline phosphatase (AP), bilirubin, total protein (TP), albumin, globulin, and blood urea nitrogen (BUN). The mice were exsanguinated and necropsies were performed. Tissues, including lung, kidney, thymus, heart, Harderian gland, spleen, stomach, small intestine and colon were fixed in 10% neutral buffered formalin. The fixed tissues were processed and examined by a board-certified pathologist.

[4] = T98G cells, 3 h exposure, FIG. 11
[5] = BALB/c mice, 20 mg/kg single i.p. injection
[6] = BALB/c mice, 40 mg/kg single i.p. injection
[7] = BALB/c mice, 80 mg/kg single i.p. injection
[8] = BALB/c mice, 120 mg/kg single i.p. injection
[9] = BALB/c mice, 160 mg/kg single i.p. injection

Which solubility in methanol [1] does the source give for “5,10,15,20-Tetra(4′-cobaltacarborane 4-hydroxyphenyl)porphyrin [Compound 13]” here?
Its solubility in methanol is “soluble”.

Which “solubility in polar organic solvents” value ([1]; acetone, ethyl acetate, acetonitrile, DMF, and DMSO) does the source give for “5,10,15,20-Tetra(4′-cobaltacarboranepyridyl)porphyrin [Compound 5]” here?
Its value is “highly soluble”.

And the solubility in methanol [1]?
The solubility in methanol was “not”.

For “5,10,15,20-Tetra[4-(nido-carboranyl)phenyl-tetrabenzoporphyrin [Compound 19]”, which “amount within T98G cells relative to Compound 20” value ([2]; after 24 h) is on record?
The value was “approximately 3 times”.

What about the “time-dependent uptake compared with porphyrin 20” value ([2]; all times 0-24 h) of the same substance?
The value was “taken up faster and to a greater extent”.

What about the “site of intracellular localization” value (Human HEp2 cells) of the same substance?
The value was “localization in the cellular lysosomes”.

What about the “solubility in polar organic solvents” value ([1]; such as acetone, methanol and DMSO) of the same substance?
Its value is “highly soluble”.

And the solubility in water ([1]; water)?
The solubility in water was “slightly soluble”.

And the “concentration accumulated within cells, higher than porphyrin 20” value [3, 4]?
Its value is “approximately 30%”.

What about the “dependence of uptake on concentration” value [3, 4] of the same substance?
The value was “increased with increasing concentration, in an almost linear fashion”.

And the “uptake in T98G cells in comparison with carboranylporphyrin 20” value ([3]; in vitro, in words)?
The value was “significantly higher uptake”.

And the “toxicity to BALB/c mice” value (BALB/c mice; 160 mg/kg, single i.p. injection, 4 mg/mL, listed as TBP 19)?
Its value is “non-toxicity; also recorded: non-toxic”.

What about the signs of toxicity (BALB/c mice; BALB/c mice, 20-160 mg/kg single i.p. injection, daily evaluation) of the same substance?
Its signs of toxicity is “No signs of toxicity”.

What about the “serum chemistry changes attributable to compound” value (BALB/c mice; BALB/c mice, i.p., maximum 160 mg/kg) of the same substance?
Its value is “No serum chemistry changes were observed”.

What about the “clinical, biochemical, or histopathological effects attributable to administration” value (BALB/c mice; BALB/c mice, single i.p. injection up to 160 mg/kg) of the same substance?
The value was “No clinical, biochemical, or histopathological effects were observed”.

And the “toxicity compared with other negatively charged carboranyl-containing porphyrins (BOPP, MnBOPP, BTPP, NiNTCP-H, ZnDPE, NiDPE)” value (BALB/c mice; mice, preliminary results)?
The value was “significantly less toxic”.

What about the AP (BALB/c mice; [5]) of the same substance?
The AP was 189.5^a,c.

What about the Albumin (BALB/c mice; [5]) of the same substance?
The Albumin was 2.85 g/dL.

What about the BUN (BALB/c mice; [5]) of the same substance?
The BUN was 28 mg/dL.

And the Bilirubin (BALB/c mice; [5])?
The Bilirubin was 0.15 mg/dL.

And the Globulin (BALB/c mice; [5])?
The Globulin was 1.8^a.

And the Glucose (BALB/c mice; [5])?
The Glucose was 153.5^a.

And the Total Prot. (BALB/c mice; [5])?
The Total Prot. was 4.65 g/dL.

What about the ALT (BALB/c mice; [5]) of the same substance?
Its ALT is 151.5.

What about the AST (BALB/c mice; [5]) of the same substance?
The AST was 177.5.

And the AP (BALB/c mice; [6])?
Its AP is 201.0^b,c.

What about the Albumin (BALB/c mice; [6]) of the same substance?
The Albumin was 2.8 g/dL.

What about the BUN (BALB/c mice; [6]) of the same substance?
The BUN was 27 mg/dL.

What about the Bilirubin (BALB/c mice; [6]) of the same substance?
The Bilirubin was 0.2 mg/dL.

What about the Globulin (BALB/c mice; [6]) of the same substance?
Its Globulin is 1.9^a.

And the Glucose (BALB/c mice; [6])?
Its Glucose is 219.5^c.

What about the Total Prot. (BALB/c mice; [6]) of the same substance?
The Total Prot. was 4.7 g/dL.

And the ALT (BALB/c mice; [6])?
The ALT was 96.5.

What about the AST (BALB/c mice; [6]) of the same substance?
Its AST is 455.5.

And the AP (BALB/c mice; [7])?
The AP was 138.0^a.

What about the Albumin (BALB/c mice; [7]) of the same substance?
Its Albumin is 2.75 g/dL.

What about the BUN (BALB/c mice; [7]) of the same substance?
Its BUN is 25.5 mg/dL.

What about the Bilirubin (BALB/c mice; [7]) of the same substance?
Its Bilirubin is 0.2 mg/dL.

What about the Globulin (BALB/c mice; [7]) of the same substance?
Its Globulin is 2.35^b.

And the Glucose (BALB/c mice; [7])?
The Glucose was 229.5^c.

And the Total Prot. (BALB/c mice; [7])?
Its Total Prot. is 5.1 g/dL.

What about the ALT (BALB/c mice; [7]) of the same substance?
The ALT was 120.0.

And the AST (BALB/c mice; [7])?
Its AST is 454.5.

And the AP (BALB/c mice; [8])?
The AP was 161.0^a.

And the Albumin (BALB/c mice; [8])?
Its Albumin is 2.75^a.

And the BUN (BALB/c mice; [8])?
The BUN was 15.5^a,b.

What about the Bilirubin (BALB/c mice; [8]) of the same substance?
The Bilirubin was 0.2 mg/dL.

What about the Globulin (BALB/c mice; [8]) of the same substance?
Its Globulin is 2.35^a.

And the “Total Prot.” value (BALB/c mice; [8])?
The value was 5.1^a.

What about the ALT (BALB/c mice; [8]) of the same substance?
Its ALT is 29.0.

What about the AST (BALB/c mice; [8]) of the same substance?
Its AST is 73.0.

And the Glucose (BALB/c mice; BALB/c mice, 120 mg/kg single i.p. injection, in mg/dL (unit assumed))?
The Glucose was 224.5.

And the AP (BALB/c mice; [9])?
Its AP is 223.5^b.

What about the BUN (BALB/c mice; [9]) of the same substance?
The BUN was 22.5^b,c.

And the Bilirubin (BALB/c mice; [9])?
The Bilirubin was 0.25 mg/dL.

And the Globulin (BALB/c mice; [9])?
Its Globulin is 1.95^b.

And the “Total Prot.” value (BALB/c mice; [9])?
Its value is 4.35^b.

What about the Albumin (BALB/c mice; BALB/c mice, 160 mg/kg single i.p. injection, 160 mg/kg) of the same substance?
Its Albumin is “lower than for other mice”.

What about the ALT (BALB/c mice; [9]) of the same substance?
Its ALT is 206.0.

And the AST (BALB/c mice; [9])?
The AST was 498.0.

What about the Glucose (BALB/c mice; BALB/c mice, 160 mg/kg single i.p. injection, in mg/dL (unit assumed)) of the same substance?
Its Glucose is 172.0.

And the Albumin (BALB/c mice; BALB/c mice, 160 mg/kg single i.p. injection, listed as TBP 5, 160 mg/kg)?
The Albumin was 2.4^b.

For “5,10,15,20-Tetra[4-(o-carboranyl)phenyl-tetrabenzoporphyrin [Compound 18]”, which “solubility in organic solvents” value ([1]; such as dichloromethane and acetone) is on record?
Its value is “soluble”.

Which “dependence of uptake on concentration” value [3, 4] does the source give for “tetra(nido-carboranylphenyl)porphyrin [Compound 20, reference compound]” here?
Its value is “increased with increasing concentration, in an almost linear fashion”.
